According to patent publication US20230219251A1, “MULTIFUNCTIONAL WOOD PRESERVATIVE COMPOSITION AND WOOD PRESERVATION TREATMENT METHOD USING THE SAME” (KOREA INSTITUTE OF SCIENCE AND TECHNOLOGY, priority 2022, published 2023):

How the values were obtained:
[1] = cited from earlier work
Coptotermes formosanus = details: cited from earlier work
wood-boring insects = details: cited from earlier work
Reticulitermes speratus = details: cited from earlier work
rot fungi = details: cited from earlier work
[2] = 30 wt % BAE; one day after completion of the reaction
Experimental: Hydrazine borates (#1 to #6) were synthesized by varying the amounts of boric acid (BA) and hydrazine hydrate (HH) while fixing the boric acid equivalent (BAE) level to 30 wt %.
(§1) Specifically, 150 g of BA was added, and HH was added at ratios shown in Table 1 after addition of water (distilled water), followed by reaction at a temperature of each reaction solution of 60° C. The termination time point of the reaction was when the solution became a transparent solution. The degree of precipitation was analyzed one day after the completion of the reaction.

[3] = pH of the prepared solutions; type: physicochemical
Experimental: as §1
Hydrazine borates (#7 to #11) with different BAE levels were synthesized by varying the amounts of BA and HH. Specifically, BA was added at proportions shown in Table 3 below, and water was added and HH was added, followed by reaction at a temperature of each reaction solution of 60° C. Then, the termination time point of the reaction was when the solution became a transparent solution. The degree of precipitation was analyzed one month after the completion of the reaction.

[4] = Test on dilution stability
Experimental: The precipitation or lack thereof over time was visually observed while the tube was shaken every 6 hours, and the results are shown in Table 14.

[5] = reaction solutions of Example 1, 30 wt % BAE
[6] = reaction solutions of Example 2, 40-71 wt % BAE

In the case of `N.O=BOB1OB2OB(O)OB(O1)O2` [ammonium pentaborate (APB), ammonium pentaborate], the “BAE at room temperature” value [1] is given as 10.6 % BAE.
In the case of `O.O.O.O.O=BOB1OB(OB=O)OB2OB([O-])OB([O-])OB(O1)O2.[Na+].[Na+]` [disodium octaborate tetrahydrate (DOT), disodium octaborate tetrahydrate], the “BAE at room temperature” value [1] is given as 11.6 % BAE.
For borate, the Toxicity titer (Coptotermes formosanus) is listed as 3.0 kg/m^3 BAE, the Toxicity titer (wood-boring insects) is listed as 1.2 kg/m^3 BAE and the Toxicity titer (Reticulitermes speratus) is listed as less than 3.0 kg/m^3 BAE. For the same compound, the Toxicity titer (rot fungi) was 1.0-1.5 kg/m^3 BAE.
In the case of “dilithium octaborate [dilithium octaborate (LOB)]”, the “BAE at room temperature” value [1] is given as 24.1 % BAE.
In the case of hydrazine borate [#1], the “Appearance of the solution / precipitate formation” value [2] is reported as “transparent solutions” and the pH [3, 5] is reported as 9.50.
For hydrazine borate [#2], the “Appearance of the solution / precipitate formation” value [2] was “transparent solutions” and the pH [3, 5] was 8.42.
Compound hydrazine borate [#3] has a pH [3, 5] of 7.45.
hydrazine borate [#4] gave a pH [3, 5] of 6.13.
hydrazine borate [#5] showed a pH [3, 5] of 6.33.
hydrazine borate [#6] gave a pH [3, 5] of 6.59.
hydrazine borate [#7] gave a pH [3, 6] of 8.45.
In the case of hydrazine borate [#8], the pH [3, 6] is reported as 8.42, the Precipitation over time ([4]; diluted 1:1 in distilled water, 1 Days) is reported as “N” and the Precipitation over time ([4]; diluted 1:1 in distilled water, 3 Days) is reported as “N”. For the same compound, the Precipitation over time ([4]; diluted 1:1 in distilled water, 5 Days) was “N”, the Precipitation over time ([4]; diluted 1:1 in distilled water, 7 Days) was “N” and the Precipitation over time ([4]; diluted 2:1 in distilled water, 1 Days) was “N”. The Precipitation over time ([4]; diluted 2:1 in distilled water, 3 Days) was “N”, the Precipitation over time ([4]; diluted 2:1 in distilled water, 5 Days) was “N” and the Precipitation over time ([4]; diluted 2:1 in distilled water, 7 Days) was “N”. The Precipitation over time ([4]; diluted 3:1 in distilled water, 1 Days) was “N”, the Precipitation over time ([4]; diluted 3:1 in distilled water, 3 Days) was “N” and the Precipitation over time ([4]; diluted 3:1 in distilled water, 5 Days) was “N”. The Precipitation over time ([4]; diluted 3:1 in distilled water, 7 Days) was “N”.
hydrazine borate [#9] showed a pH [3, 6] of 8.41.
For hydrazine borate [#10], the pH [3, 6] was 8.40.
In the case of hydrazine borate [#11], the pH [3, 6] is reported as 8.37.
